The values that follow are results of earlier work, collected in publication PMC8198792, “Prediction of Anticancer Peptides with High Efficacy and Low Toxicity by Hybrid Model Based on 3D Structure of Peptides” (International Journal of Molecular Sciences, 2021).

Like-named read-outs stand apart in the source and are kept apart here.

The series relates to cancer cell lines. Further details: method as in 6 sources, ref CancerPPD [45] and SATPdb ||| ref CancerPPD/SATPdb ||| ref CancerPPD, SATPdb, Swissprot (PDB) ||| ref CancerPPD/SATPdb/Swissprot(PDB) ||| ref CancerPPD / SATPdb ||| ... The following applies: cited from earlier work. The text has this: Supplement ijms-22-05630-s001.zip/ACPs(seguence).xlsx, sheet "D1" | column: Activity || Supplement ijms-22-05630-s001.zip/ACPs(seguence).xlsx, sheet "D2" | column: Activity || Supplement ijms-22-05630-s001.zip/ACPs(seguence).xlsx, sheet "D3" | column: Activity || (+ 2 further places)

Setting [1] is: ACPs dataset D1, 1 = ACP (positive), 0 = non-ACP (negative), label taken from databases, ref CancerPPD [45] and SATPdb.
Where [2] appears, read: ACPs dataset D4 (sheet "D4"), label 1 = ACP (CancerPPD ID), 0 = non-ACP (non-anticancer AMP, SATPdb ID), ref CancerPPD [45] and SATPdb.
Setting [3] is: ACPs dataset D4 (sheet "D4"), label 1 = ACP, experimentally validated ACPs, ref CancerPPD [45] and SATPdb.
The mark [4] stands for this setting: ACPs dataset D5 (sheet "D5"), label 1 = ACP (positive set), sequences with CancerPPD/SATPdb ID, ref CancerPPD, SATPdb.
Where [5] appears, read: ACPs dataset sheet D2, 1 = ACP (CancerPPD/SATPdb ID), 0 = non-ACP (Swissprot/PDB ID), ref CancerPPD, SATPdb, Swissprot (PDB).
The mark [6] stands for this setting: ACPs dataset D3 (supplement sheet "D3"), 1 = ACP, 0 = non-ACP, ref CancerPPD [45] and SATPdb.
The mark [7] stands for this setting: ACPs dataset D5 (sheet "D5"), label 1 = ACP (positive set), 0 = non-ACP (negative set), ref CancerPPD [45] and SATPdb.
The mark [8] stands for this setting: ACPs dataset D2 (supplement ACPs(seguence).xlsx, sheet D2), dataset label 1/0 (ACP / non-ACP), entries identified by Swissprot(PDB ID), ref CancerPPD/SATPdb/Swissprot(PDB).
[9] abbreviates: ACPs dataset D5, sheet "D5", label 1 = ACP, 0 = non-ACP, ref CancerPPD [45] and SATPdb.
The mark [10] stands for this setting: ACPs dataset D3 (sheet "D3"), label 1 = ACP, 0 = non-ACP, ref CancerPPD/SATPdb.
The mark [11] stands for this setting: ACPs dataset D4 (sheet "D4"), label 1 = ACP, 0 = non-ACP, ref CancerPPD / SATPdb.
Setting [12] is: ACPs dataset D1, label 1 = ACP, 0 = non-ACP (non-anticancer AMPs from SATPdb), ref CancerPPD/SATPdb.

As to IFGAIWKGISSLL [satpdb10136], the Activity is 0 under setting [1] and 0 under setting [2].
Consider “HTHQDFQPVLHLVALNTPLSGGMRGIR [satpdb17795]”, for which the Activity under setting [1] is 1, the Activity under setting [3] is on record as 1, the Activity under setting [4] is 1 and the Activity under setting [5] is listed as 1.
In the case of KWKLFKKIPLKKF [compound 1122], the Activity under setting [6] is 1, the Activity under setting [2] was 1 and the Activity under setting [7] was 1.
As for “EECGPNEVFNTCGSACAPTCAQPKTRICTMQCRIGCQCQEGFLRNGEGACVLPENC [1CCV NMR - A 1-56]”, the Activity under setting [8] is 0 and the Activity under setting [9] is recorded as 0.
“VLSIVACSSGCGSGKTAASCVETCGNRCFTNVGSLC [satpdb10613]”: the Activity was 0 under setting [1] and 0 under setting [2].
For the substance LLKKLLKKLLKK [satpdb13272], the Activity reads like this: under setting [10], 0; under setting [11], 0; under setting [9], 0.
In the case of KFPKFRRGIPFLFV [satpdb10093], the Activity is, setting by setting: under setting [1], 0; under setting [2], 0.
Take “LGQSAASAHHAYIVLAIENSFMTASKKK [compound 4207]”: the Activity is, setting by setting: under setting [1], 1; under setting [3], 1; under setting [4], 1; under setting [5], 1.
Turning to GLLGLLGSVVSHVVPAIVGHF [compound 4416], the Activity is, setting by setting: under setting [1], 1; under setting [3], 1; under setting [4], 1; under setting [5], 1.
As to “GPSQPTYPGDDAPVEDLIRFYNDLQQYLNVVTRHRY [1PPT X-ray 1.37 A 1-36]”, the Activity by setting is: under setting [8], 0; under setting [7], 0.
As for “ARLKKCFNKVTGYCRKKCKVGERYEIGCLSGKLCCAN [satpdb10509]”, the Activity under setting [1] was 0 and the Activity under setting [2] is recorded as 0.
As for KKLFKKilkYL [satpdb14386], the Activity is reported as 0 under setting [10], 0 under setting [11] and 0 under setting [9].
In the case of GIGKFLHSAKKFGKAFVGEIMNS [compound 1116], the Activity under setting [6] is on record as 1, the Activity under setting [2] is 1 and the Activity under setting [7] is 1.
In the case of “KWKSFlKTFKSLKKTVLHTLLKAISS [compound 3768]”, the Activity is, setting by setting: under setting [6], 1; under setting [2], 1; under setting [7], 1.
In the case of GLFDIAKKVIGVIGSL [compound 1270], the Activity was 1 under setting [6], 1 under setting [2] and 1 under setting [7].
In the case of “NVLLSPLSVATALSALSLGAEQRTES [satpdb18073]”, the Activity is recorded as 1 under setting [1], 1 under setting [3], 1 under setting [4] and 1 under setting [5].
On to FLSLIPSLVGGSISAFK [compound 3123], for which the Activity reads like this: under setting [6], 1; under setting [3], 1; under setting [4], 1.
LTAEHYAAQATS [compound 4580]: the Activity is on record as 1 under setting [1], 1 under setting [3], 1 under setting [4] and 1 under setting [5].
In the case of ALLHHGLNCAKGVLA [satpdb12694], the Activity reads like this: under setting [12], 0; under setting [2], 0.
GLLDIVKKVVGAFGSL [compound 4414]: the Activity reads like this: under setting [1], 1; under setting [3], 1; under setting [4], 1; under setting [5], 1.
As for SPPNQPSIMTFDYAKTNK [satpdb13153], the Activity is 0 under setting [12] and 0 under setting [11].
With “GTWDDIGQGIGRVAYWVGKAMGNMSDVNQASRINRKKKH [2JPJ NMR - A 1-39]”, the Activity reads like this: under setting [8], 0; under setting [7], 0.
As for GILNTIKSIASKLKRKAK [satpdb10259], the Activity runs as follows: under setting [1], 0; under setting [2], 0.
As for GKWSKILGKLIR [compound 3644], the Activity is listed as 1 under setting [6], 1 under setting [2] and 1 under setting [7].
Take GDVIDTDRDIDR [satpdb14246]: the Activity is, setting by setting: under setting [1], 1; under setting [3], 1; under setting [4], 1; under setting [5], 1.
Consider “MKNAKQEHFELDQEWVELMVEAKEANISPEEIRKYLLLNKKSAHPGPAARSHTVNPF [1B0N X-ray 1.90,B,1-57]”, for which the Activity is given as 0 under setting [8] and 0 under setting [9].
For “GVGDLIRKAV SVIKNIV [6GS3 X-ray 1.45 A/B 1-17]”, the Activity reads like this: under setting [7], 0; under setting [5], 0.
“GILLDKLKNFAKTAGKGVLQSLLNTASCKLSGQC [satpdb12360]”: the Activity is recorded as 0 under setting [12] and 0 under setting [2].
On to “GCPRILMRCK QDSDCLAGCV CGPNGFCGSP [1H9H X-ray 1.50 I 1-30]”, for which the Activity runs as follows: under setting [7], 0; under setting [5], 0.
As to “GIFSLFKAGAKFFGKHLLKQAGKAGAEHLACKATNQC [satpdb10483]”, the Activity runs as follows: under setting [1], 0; under setting [2], 0.
With “FLPVIAGVAANFLPKLFCAISKKC [compound 4361]”, the Activity is 1 under setting [1], 1 under setting [3], 1 under setting [4] and 1 under setting [5].
For “MELVKVVFMGWFKNESMFTKEITMMKDDVQWATTQYAEVNKALVKAFIDDKKVCEVDCRG [5HY3 X-ray 3.10,B,1-60]”, the Activity was 0 under setting [8] and 0 under setting [9].
Take “GWKKWFNRAKKVGKTVGGLAVDHYLG [satpdb11446]”: the Activity reads like this: under setting [12], 0; under setting [2], 0.
On to “GLASFLGKALKAGLKIGSHLLGGAPQQ [satpdb10480]”, for which the Activity under setting [1] is 0 and the Activity under setting [2] was 0.
As for KWKLFKKIGIGKFLHSATTF [compound 1188], the Activity is listed as 1 under setting [6], 1 under setting [2] and 1 under setting [7].
Take FLPIIASVAANVFSKIFCAISKKC [satpdb10458]: the Activity under setting [1] is on record as 0 and the Activity under setting [2] is recorded as 0.
Take “ASFPWSCPSLSGVCRKVCLPTELFFGPLGCGKGFLCGVSHFL [satpdb13301]”: the Activity reads like this: under setting [12], 0; under setting [11], 0.
Turning to “ALWKDILKNVGKAAGKAVLNTVTDMVNQ [compound 1707]”, the Activity under setting [6] is on record as 1, the Activity under setting [3] was 1 and the Activity under setting [4] is 1.
On to “ALWKNMLKGIGKLAGQAALGAVKTLVGA [compound 1706]”, for which the Activity reads like this: under setting [1], 1; under setting [3], 1; under setting [4], 1; under setting [5], 1.
For “MVAYWRQAGLSYIRYSQICAKAVRDALKTEFKANAMKTSGSTIKIVKVKKE [2W6J X-ray 3.84,I,1-51]”, the Activity runs as follows: under setting [8], 0; under setting [9], 0.
As for “GLWSKIKEAAKAAGKAALNAVTGLVNQGDQPS [compound 4452]”, the Activity is, setting by setting: under setting [1], 1; under setting [3], 1; under setting [4], 1; under setting [5], 1.
For the substance “AEDCVGRKACTREWYPVCGSDGVTYSNPCNFSAQQEQCDPNITIAHMGEC [2N71 NMR - A 1-50]”, the Activity is 0 under setting [8] and 0 under setting [7].
For “GLFSKFVGKGIKNFLIKGVKHIGKEVGMDVIRVGIDVAGCKIKGVC [satpdb10682]”, the Activity is on record as 0 under setting [1] and 0 under setting [2].
For GKWMSLWKHILK [compound 3657], the Activity by setting is: under setting [6], 1; under setting [2], 1; under setting [7], 1.
Turning to TMPFLFCNVNDCNFASRNDYSYWL [satpdb12405], the Activity is given as 1 under setting [1], 1 under setting [3], 1 under setting [4] and 1 under setting [5].
As to “EDMNQKLFDLRGKFKRPPLRRVRMSADAML [satpdb19871]”, the Activity is 1 under setting [1], 1 under setting [3], 1 under setting [4] and 1 under setting [5].
For the substance MFFSSKKCKTVSKTFRGPCVRNA [satpdb11127], the Activity is 0 under setting [1] and 0 under setting [2].
